Structures can show the parent of a compound that is named as a salt.
How the values were obtained:
[1] = target: T1, human factor XIa (Homo sapiens, UniProt P03951); assay: Measurement of FXIa inhibition (fluorogenic peptide substrate Boc-Glu(OBzl)-Ala-Arg-AMC); format: biochemical; conditions: factor XIa from Kordia 0.45 nM; 15 min preincubation; 30 min at 22° C.; fluorescence of AMC
T1 construct: purchased Kordia
Method: a.1) Measurement of FXIa Inhibition
The factor XIa inhibition of the substances according to the invention is determined using a biochemical test system which utilizes the reaction of a peptidic factor XIa substrate to determine the enzymatic activity of human factor XIa. Here, factor XIa cleaves from the peptic factor XIa substrate the C-terminal aminomethylcoumarin (AMC), the fluorescence of which is measured. The determinations are carried out in microtitre plates.
Test substances are dissolved in dimethyl sulphoxide and serially diluted in dimethyl sulphoxide (3000 μM to 0.0078 μM; resulting final concentrations in the test: 50 μM to 0.00013 μM). In each case 1 μl of the diluted substance solutions is placed into the wells of white microtitre plates from Greiner (384 wells). Subsequently, the following are added successively: 20 μl of assay buffer (50 mmol/l Tris buffer pH 7.4; 100 mmol/l sodium chloride; 5 mmol/l calcium chloride; 0.1% bovine serum albumin) and 20 μl of factor XIa from Kordia (0.45 nM in assay buffer). After 15 min of incubation, the enzyme reaction is started by addition of 20 μl of the factor XIa substrate Boc-Glu(OBzl)-Ala-Arg-AMC dissolved in assay buffer (10 μM in assay buffer) from Bachem, the mixture is incubated at room temperature (22° C.) for 30 min and fluorescence is then measured (excitation: 360 nm, emission: 460 nm). The measured emissions of the test batches with test substance are compared to those of control batches without test substance (only dimethyl sulphoxide instead of test substance in dimethyl sulphoxide), and IC50 values are calculated from the concentration/activity relationships.

[2] = tested on: plasma; assay: Determination of anticoagulatory activity: activated partial thromboplastin time (aPTT) in plasma; conditions: in vitro in human and animal plasma (species of Table B not stated); C.K. Prest kit; 37° C., 3 minutes incubation
Method: a.4) Determination of Anticoagulatory Activity
The anticoagulatory activity of the test substances is determined in vitro in human and animal plasma (for example mouse, rat, rabbit, pig and dog plasma). To this end, blood is drawn off in a mixing ratio of sodium citrate/blood of 1:9 using a 0.11 molar sodium citrate solution as receiver. Immediately after the blood has been drawn off, it is mixed thoroughly and centrifuged at about 4000 g for 15 minutes. The supernatant is pipetted off.
The activated partial thromboplastin time (aPTT) is determined in the presence of varying concentrations of test substance or the corresponding solvent using a commercial test kit (C.K. Prest from Diagnostica Stago). The test compounds are incubated with the plasma and the PTT reagent (cephalin, kaolin) at 37° C. for 3 minutes. Coagulation is then started by addition of a 25 mM aqueous calcium chloride solution, and the time when coagulation occurs is determined. The concentration of test substance which brings about a 1.5-fold extension of the aPTT is determined.

T1 sequence (P03951 388-625 limits assumed): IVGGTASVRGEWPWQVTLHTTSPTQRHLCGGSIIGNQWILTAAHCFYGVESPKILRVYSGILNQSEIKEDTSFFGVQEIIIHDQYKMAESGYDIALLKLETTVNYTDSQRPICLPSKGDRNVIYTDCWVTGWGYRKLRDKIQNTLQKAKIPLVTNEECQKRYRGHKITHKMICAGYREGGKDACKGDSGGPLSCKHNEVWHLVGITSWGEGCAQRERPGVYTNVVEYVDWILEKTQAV
T1 sequence (P03951 19-387 partner limits assumed): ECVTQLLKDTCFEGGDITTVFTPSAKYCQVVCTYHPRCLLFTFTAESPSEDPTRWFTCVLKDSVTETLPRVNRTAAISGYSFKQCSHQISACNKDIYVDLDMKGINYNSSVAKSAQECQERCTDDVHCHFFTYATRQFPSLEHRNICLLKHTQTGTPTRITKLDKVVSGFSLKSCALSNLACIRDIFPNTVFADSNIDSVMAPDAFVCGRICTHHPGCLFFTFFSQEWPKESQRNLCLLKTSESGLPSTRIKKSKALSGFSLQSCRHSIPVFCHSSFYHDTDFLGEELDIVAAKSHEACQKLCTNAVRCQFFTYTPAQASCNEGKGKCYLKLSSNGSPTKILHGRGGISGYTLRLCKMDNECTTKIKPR

Q: How did the IC50 [1] turn out when `NC[C@H]1CC[C@H](C(=O)N[C@@H](Cc2ccc(-c3ccccc3C(=O)N3CCNCC3)cc2)C(=O)Nc2ccc(-c3nn[nH]n3)cc2)CC1` [Example 5, trans-4-(Aminomethyl)-N-[(2S)-1-oxo-3-[2′-(piperazin-1-ylcarbonyl)biphenyl-4-yl]-1-{[4-(2H-tetrazol-5-yl)phenyl]amino}propan-2-yl]cyclohexanecarboxamide hydrochloride] was run?
A: The IC50 was 11 nM.

Q: And the “aPTT (concentration of test substance which brings about a 1.5-fold extension of the aPTT)” value [2]?
A: The value was 0.32 µmol/L.

Q: With `NCC(=O)NCC(=O)NCC(=O)Nc1ccccc1-c1ccc(C[C@H](NC(=O)[C@H]2CC[C@H](CN)CC2)C(=O)Nc2ccc(-c3nn[nH]n3)cc2)cc1` [Example 9, Glycylglycyl-N-{4′-[(2S)-2-({[trans-4-(aminomethyl)cyclohexyl]carbonyl}amino)-3-oxo-3-{[4-(2H-tetrazol-5-yl)phenyl]amino}propyl]biphenyl-2-yl}glycinamide hydrochloride] as the compound, how does the IC50 [1] read?
A: Its IC50 is 5.3 nM.

Q: What about the “aPTT (concentration of test substance which brings about a 1.5-fold extension of the aPTT)” value [2] of the same compound?
A: The value was 0.12 µmol/L.

Q: Which IC50 [1] does the source give for `CC(C)Oc1ccccc1-c1ccc(C[C@H](NC(=O)[C@H]2CC[C@H](CN)CC2)C(=O)Nc2ccc(-c3nc(C(F)(F)C(F)(F)C(=O)O)n[nH]3)cc2)cc1` [Example 17, 3-[5-(4-{[(2S)-2-({[trans-4-(Aminomethyl)cyclohexyl]carbonyl}amino)-3-(2′-isopropoxybiphenyl-4-yl)propanoyl]amino}phenyl)-1H-1,2,4-triazol-3-yl]-2,2,3,3-tetrafluoropropanoic acid hydrochloride] here?
A: The IC50 was 1.2 nM.

Q: And the “aPTT (concentration of test substance which brings about a 1.5-fold extension of the aPTT)” value [2]?
A: The value was 0.22 µmol/L.

Reference: patent US20160237045A1, “SUBSTITUTED PHENYLALANINE DERIVATIVES” (BAYER PHARMA AKTIENGESELLSCHAFT, priority 2013, published 2016)
